Results published in patent publication US20260070922A1, “PYRAZOLE AND IMIDAZOLE DERIVATIVES AS DUAL OREXIN AND KAPPA-OPIOID RECEPTORS MODULATORS COMPOSITION, METHODS FOR TREATING NEUROLOGICAL AND PSYCHIATRIC DISORDERS” (HAGER BIOSCIENCES, LLC, priority 2022, published 2026).

Legend:
[1] = molecular target: T1, human orexin-2 receptor (OX2R) (Homo sapiens, UniProt O43614); experiment: In vitro orexin antagonism assay: intracellular calcium measurement (FLIPR), orexin-A 3 nM as agonist; format: cell-based; settings: for inhibition at 1 µM: read-out: OX2R, % Inh. @ 1 uM; for IC50: first value of IC50/Kb cell; for Kb: second value of IC50/Kb cell
T1 construct: expressed in transfected cells; host or cells: CHO cells (G418 selection)
T1 sequence (O43614 1-444): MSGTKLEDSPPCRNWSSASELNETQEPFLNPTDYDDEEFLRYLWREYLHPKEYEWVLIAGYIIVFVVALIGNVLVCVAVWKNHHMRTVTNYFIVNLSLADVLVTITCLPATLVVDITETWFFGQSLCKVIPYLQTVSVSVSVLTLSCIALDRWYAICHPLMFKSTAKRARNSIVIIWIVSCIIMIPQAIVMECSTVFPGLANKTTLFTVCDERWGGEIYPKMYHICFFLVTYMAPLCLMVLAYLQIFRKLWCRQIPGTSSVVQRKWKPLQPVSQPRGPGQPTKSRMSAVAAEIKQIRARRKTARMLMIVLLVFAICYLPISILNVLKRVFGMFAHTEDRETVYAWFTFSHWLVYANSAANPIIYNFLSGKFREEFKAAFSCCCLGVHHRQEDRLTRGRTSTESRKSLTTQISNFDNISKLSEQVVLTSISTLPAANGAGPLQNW
Description: Antagonistic activities on both orexin receptors have been measured for each example compound using the following procedure:
(§1) In Vitro Orexin Antagonism Measurement Assay: Intracellular Calcium Measurements:
(§2) Chinese hamster ovary (CHO) cells expressing the human […] and the human orexin-2 receptor, respectively, are grown in culture medium (Ham F-12 with L-Glutamine) containing 300 μg/mL G418, 100 U/mL penicillin, 100 μg/mL streptomycin and 10% heat inactivated fetal calf serum (FCS). The cells are seeded at 20,000 cells/well into 384-well black clear bottom sterile plates (Greiner). The seeded plates are incubated overnight at 37° C. in 5% 002. Human orexin-A as an agonist is prepared as 1 mM stock solution in MeOH: water (1:1), diluted in HBSS containing 0.1% bovine serum albumin (BSA), NaHCO3: 0.375 g/L and 20 mM HEPES for use in the assay at a final concentration of 3 nM.
(§3) Antagonists are prepared as 10 mM stock solution in DMSO, then diluted in 384-well plates using DMSO followed by a transfer of the dilutions into in HBSS containing 0.1% bovine serum albumin (BSA), NaHCO3: 0.375 g/L and 20 mM HEPES. On the day of the assay, 50 μL of staining buffer (HBSS containing 1% FCS, 20 mM HEPES, NaHCO3: 0.375 g/L, 5 mM probenecid (Sigma) and 3 μM of the fluorescent calcium indicator fluo-4 AM (1 mM stock solution in DMSO, containing 10% pluronic) is added to each well. The 384-well cell-plates are incubated for 50 min at 37° C. in 5% CO2 followed by equilibration at RT for 30 min before measurement.
(§4) Within the Fluorescent Imaging Plate Reader (FLIPR Tetra, Molecular Devices), antagonists are added to the plate in a volume of 10 μL/well, incubated for 120 min and finally 10 μL/well of agonist is added. Fluorescence is measured for each well at 1 second intervals, and the height of each fluorescence peak is compared to the height of the fluorescence peak induced by 3 nM orexin-A with vehicle in place of antagonist. The IC50 value (the concentration of compound needed to inhibit 50% of the agonistic response) is determined and may be normalized using the obtained IC50 value of an on-plate reference compound. Optimized conditions were achieved by adjustment of pipetting speed and cell splitting regime. The calculated IC50values may fluctuate depending on the daily cellular assay performance. Fluctuations of this kind are known to those skilled in the art. In the case where IC50values have been determined several times for the same compound, the geometric mean has been given.

[2] = molecular target: T2, Orexin type 1 (OX1R) receptor (Homo sapiens, UniProt O43613); experiment: as above; format: cell-based; settings: for IC50: first value of IC50/Kb cell; for inhibition at 1 µM: read-out: OX1R, % Inh. @ 1 uM; for Kb: second value of IC50/Kb cell
T2 construct: expressed in transfected cells; host or cells: CHO cells (G418 selection)
T2 sequence (O43613 1-425): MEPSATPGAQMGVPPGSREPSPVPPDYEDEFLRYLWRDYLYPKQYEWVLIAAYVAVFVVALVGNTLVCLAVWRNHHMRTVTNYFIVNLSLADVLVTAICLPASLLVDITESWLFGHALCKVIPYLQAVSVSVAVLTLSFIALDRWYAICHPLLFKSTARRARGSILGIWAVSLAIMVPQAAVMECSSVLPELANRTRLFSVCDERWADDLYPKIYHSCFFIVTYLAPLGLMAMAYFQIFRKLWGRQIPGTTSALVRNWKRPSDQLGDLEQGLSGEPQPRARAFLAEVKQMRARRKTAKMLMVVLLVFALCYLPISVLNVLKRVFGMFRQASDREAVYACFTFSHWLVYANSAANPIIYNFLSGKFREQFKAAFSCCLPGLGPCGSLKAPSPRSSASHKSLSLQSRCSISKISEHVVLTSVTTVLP
Description: as §1, §2, §3
as §4, with “art.” for “art. In the case where IC50values have been determined several times for the same compound, the geometric mean has been given.”

| inhibition at 1 µM [1] | IC50 [2] | inhibition at 1 µM [2] | Kb [2] | IC50 [1] | Kb [1] | Compound |
| --- | --- | --- | --- | --- | --- | --- |
| 38% | 0.54 µM | 58% | 0.11 µM | – | – | O=C(c1c(-c2ccccc2F)nn2c1COCC2)N1CCC[C@H]1Cn1ccc(-c2ccc(F)cn2)n1 [Example 91] |
| 39.4% | 0.014 µM | 99.5% | 0.003 µM | – | – | O=C(c1c(-c2ccccc2)nc2ccccn12)N1CCCC[C@H]1CNc1ccc(C(F)(F)F)cn1 [Example 26] |
| 42% | 0.006 µM | 100% | 0.001 µM | – | – | O=C(c1nn2c(c1-c1ccccc1)OCCC2)N1CCC[C@H]1COc1ccc(C(F)(F)F)cn1 [Example 142] |
| 28% | 0.019 µM | 100% | 0.004 µM | – | – | O=C(c1nn2c(c1-c1ccccn1)COCC2)N1CCC[C@H]1Cn1ccc(-c2ccccn2)n1 [Example 211] |
| 6% | – | 14% | – | – | – | O=C(c1c(-c2ccccc2)nn2ccccc12)N1CCOC[C@H]1COc1ccc(C(F)(F)F)cn1 [Example 114] |
| 29% | – | 5% | – | – | – | O=C(c1c(-c2ccccc2)nc2ccc(F)cn12)N1CC[C@H]1Cn1ccc(-c2ccc(F)cn2)n1 [Example 105] |
| 27% | 0.017 µM | 97% | 0.004 µM | – | – | O=C(c1nc2ccccn2c1-c1ccccn1)N1CCC[C@H]1Cn1ccc(-c2ccccn2)n1 [Example 180] |
| 23% | – | 22% | – | – | – | O=C(c1c(-c2ccccc2)nn2c1COCC2)N1CCC[C@H]1Cn1cc(-c2ccccn2)cn1 [Example 77] |
| 46.5% | 0.08 µM | 88.1% | 0.017 µM | – | – | O=C(c1c(-c2ccccc2)nc2ccc(F)cn12)N1CCC[C@H]1COc1ccc(C(F)(F)F)cn1 [Example 51] |
| 25% | – | 46% | – | – | – | O=C(c1c(-c2ccccc2)nn2c1COCC2)N1CCC[C@H]1Cn1ccc(-c2ccccn2)n1 [Example 76] |
| 28.3% | 0.009 µM | 93.1% | 0.002 µM | – | – | O=C(c1c(-c2ccc(F)cc2)nn2ccccc12)N1CCC[C@H]1COc1ccc(C(F)(F)F)cn1 [Example 43] |
| 35% | 0.12 µM | 60% | 0.025 µM | – | – | O=C(c1c(-c2ccccc2F)nn2c1COCC2)N1CCC[C@H]1Cn1ccc(-c2ccccn2)n1 [Example 70] |
| 0% | – | 56% | – | – | – | O=C(c1nn2c(c1-c1ccccn1)CCOC2)N1CCC[C@H]1Cc1nc(-c2ccccn2)no1 [Example 221] |
| 28% | 0.475 µM | 72% | 0.1 µM | – | – | C[C@@]1(COc2cnc(C(F)(F)F)cn2)CCCN1C(=O)c1c(-c2ccccc2)nn2cccnc12 [Example 168] |
| 14.8% | – | 32.5% | – | – | – | O=C(c1c(-c2ccccc2)nn2ccccc12)N1CCC[C@H]1CNc1ccc(F)cn1 [Example 30] |
| 59% | 0.019 µM | 96% | 0.004 µM | – | – | O=C(c1nn2ccccc2c1-c1ccccn1)N1CCC[C@H]1Cn1ccc(-c2ccc(F)cn2)n1 [Example 182] |
| 39% | – | 19% | – | – | – | O=C(c1c(-c2ccccc2)nc2cc(C(F)(F)F)ccn12)N1CC[C@H]1Cn1ccc(-c2ccc(F)cn2)n1 [Example 106] |
| 49% | 0.011 µM | 88% | 0.002 µM | – | – | O=C(c1c(-c2ccccn2)nn2ccccc12)N1CCC[C@H]1COc1ccc(C(F)(F)F)cn1 [Example 192] |
| 10.4% | – | 25.4% | – | – | – | O=C(c1c(-c2ccccc2)nn2ccccc12)N1CCC[C@H]1COc1ccc(Br)nc1 [Example 37] |
| 23% | 0.029 µM | 82% | 0.006 µM | – | – | O=C(c1nn2cccnc2c1-c1ccccn1)N1CCC[C@H]1Cc1nc(-c2ccccn2)no1 [Example 188] |
| -6.1% | – | 8.2% | – | – | – | O=C(c1c(-c2ccccc2)nc2ccccn12)N1CCC[C@H]1COc1ccc(Br)nc1 [Example 38] |
| 40% | 0.012 µM | 93% | 0.002 µM | – | – | O=C(c1nn2ccccc2c1-c1ccccn1)N1CCC[C@H]1Cc1nc(-c2ccc(F)cn2)no1 [Example 176] |
| 23% | 0.46 µM | 85% | 0.097 µM | – | – | C[C@@]1(COc2cnc(C(F)(F)F)cn2)CCCN1C(=O)c1nn2ccccc2c1-c1ccccc1 [Example 170] |
| 45.1% | 0.122 µM | 98% | 0.026 µM | – | – | O=C(c1c(-c2ccc(F)cc2)nn2c1COCC2)N1CCC[C@H]1Cn1ccc(-c2ccc(F)cc2)n1 [Example 54] |
| 4% | 0.3 µM | 75% | 0.063 µM | – | – | O=C(c1nc2ccccn2c1-c1ccccn1)N1CCC[C@H]1Cc1nc(-c2ccccn2)no1 [Example 209] |
| 29% | 0.011 µM | 93% | 0.002 µM | – | – | O=C(c1nn2ccccc2c1-c1ccccn1)N1CCC[C@H]1Cc1nc(-c2ccccn2)no1 [Example 175] |
| 42% | 1.3 µM | 56% | 0.28 µM | – | – | O=C(c1c(-c2ccccc2)nn2c1COCC2)N1CCC[C@H]1Cn1cc(-c2ccccc2)cn1 [Example 86] |
| 98% | 0.012 µM | 99% | 0.003 µM | 0.024 µM | 0.004 µM | O=C(c1c(-c2ccccn2)nn2ccccc12)N1CCC[C@H]1Cn1ccc(-c2ccc(F)cn2)n1 [Example 205] |
| 58% | – | 32% | – | 0.4 µM | 0.07 µM | O=C(c1c(-c2ccccc2)nc2ccc(F)cn12)N1CCC[C@H]1Cn1cc(-c2ccc(F)cn2)cn1 [Example 84] |
| 45% | 0.62 µM | 64% | 0.013 µM | – | – | O=C(c1c(-c2ccccc2F)nn2c1COCC2)N1CCC[C@H]1Cn1cc(-c2ccccc2)cn1 [Example 72] |

| Compound | inhibition at 1 µM [1] | IC50 [2] | inhibition at 1 µM [2] | Kb [2] | IC50 [1] | Kb [1] |
| --- | --- | --- | --- | --- | --- | --- |
| O=C(c1nn2c(c1-c1ccccc1)COCC2)N1C2CCC1(COc1ccc(C(F)(F)F)cn1)CC2 [Example 159] | 15% | 0.048 µM | 86% | 0.01 µM | – | – |
